Like-named read-outs stand apart in the source and are kept apart here.
Tests used:
[1] = 13-membered ring
[2] = target: T1, CFTR-mediated chloride transport in human intestinal epithelial enteroid cells (Homo sapiens, UniProt P13569); test: Membrane potential dye, Enteroid Assay B; assay type: cell-based; settings: Enteroid Assay B; for EC50: read-out: Ent. B EC50
Procedure: Base medium (ADF+++) consisted of Advanced DMEM/Ham's F12, 2 mM Glutamax, 10 mM HEPES, […] penicillin/streptomycin.
Bath 1 Buffer consisted of 1 mM MgCl2, 160 mM NaCl, 4.5 mM KCl, 10 mM HEPES, 10 mM Glucose, 2 mM CaCl2.
Chloride Free Buffer consisted of 1 mM Magnesium Gluconate, 2 mM Calcium Gluconate, 4.5 mM Potassium Gluconate, 160 mM Sodium Gluconate, 10 mM HEPES, 10 mM Glucose.
Bath1 Dye Solution consisted of Bath 1 Buffer, 0.04% Pluronic F127, 20 μM Methyl Oxonol, 30 μM CaCCinh-A01, 30 μM Chicago Sky Blue.
Chloride Free Dye Solution consisted of Chloride Free Buffer, 0.04% Pluronic F127, 20 μM Methyl Oxonol, 30 μM CaCCinh-A01, 30 μM Chicago Sky Blue.
3. Enteroid Cell Harvesting and Seeding
Cells were recovered in cell recovery solution, collected by centrifugation at 650 rpm for 5 min at 4° C., resuspended in TryPLE and incubated for 5 min at 37° C. Cells were then collected by centrifugation at 650 rpm for 5 min at 4° C. and resuspended in IEMM containing 10 μM ROCK inhibitor (RI).
5. Membrane Potential Dye, Enteroid Assay B
Briefly, cells were washed 5 times in Bath 1 Buffer. Bath 1 Dye Solution was added and the cells were incubated for 25 min at room temperature. Following dye incubation, cells were washed 3 times in Chloride Free Dye Solution. Chloride transport was initiated by addition of Chloride Free Dye Stimulation Solution and the fluorescence signal was read for 15 min.

[3] = target: T1, CFTR-mediated chloride transport in human intestinal epithelial enteroid cells; test: Membrane potential dye, Enteroid Assay A; assay type: cell-based; settings: for EC50: read-out: Ent. A EC50
In short: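 Membrane potential dye (20 μM methyl oxonol, with 30 μM CaCCinh-A01 and 30 μM Chicago Sky Blue) loaded 25 min at room temperature into ROCK-inhibitor-seeded human enteroid cells. Chloride-free stimulation buffer triggered transport, followed by 15 min fluorescence. % Activity relative to 3 μM/3 μM/300 nM triple-combination control.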

[4] = enteroid cells incubated with test compound 18-24 hours, acute 10 μM forskolin and 300 nM N-[2,4-bis(1,1-dimethylethyl)-5-hydroxyphenyl]-1,4-dihydro-4-oxoquinoline-3-carboxamide
[5] = percentage of chloride transport of triple combination control (3 μM N-[(6-amino-2-pyridyl)sulfonyl]-6-(3-fluoro-5-isobutoxy-phenyl)-2-[(4S)-2,2,4-trimethylpyrrolidin-1-yl]pyridine-3-carboxamide based)

T1 sequence (P13569 with tags, fused parts or gaps DEL508-508): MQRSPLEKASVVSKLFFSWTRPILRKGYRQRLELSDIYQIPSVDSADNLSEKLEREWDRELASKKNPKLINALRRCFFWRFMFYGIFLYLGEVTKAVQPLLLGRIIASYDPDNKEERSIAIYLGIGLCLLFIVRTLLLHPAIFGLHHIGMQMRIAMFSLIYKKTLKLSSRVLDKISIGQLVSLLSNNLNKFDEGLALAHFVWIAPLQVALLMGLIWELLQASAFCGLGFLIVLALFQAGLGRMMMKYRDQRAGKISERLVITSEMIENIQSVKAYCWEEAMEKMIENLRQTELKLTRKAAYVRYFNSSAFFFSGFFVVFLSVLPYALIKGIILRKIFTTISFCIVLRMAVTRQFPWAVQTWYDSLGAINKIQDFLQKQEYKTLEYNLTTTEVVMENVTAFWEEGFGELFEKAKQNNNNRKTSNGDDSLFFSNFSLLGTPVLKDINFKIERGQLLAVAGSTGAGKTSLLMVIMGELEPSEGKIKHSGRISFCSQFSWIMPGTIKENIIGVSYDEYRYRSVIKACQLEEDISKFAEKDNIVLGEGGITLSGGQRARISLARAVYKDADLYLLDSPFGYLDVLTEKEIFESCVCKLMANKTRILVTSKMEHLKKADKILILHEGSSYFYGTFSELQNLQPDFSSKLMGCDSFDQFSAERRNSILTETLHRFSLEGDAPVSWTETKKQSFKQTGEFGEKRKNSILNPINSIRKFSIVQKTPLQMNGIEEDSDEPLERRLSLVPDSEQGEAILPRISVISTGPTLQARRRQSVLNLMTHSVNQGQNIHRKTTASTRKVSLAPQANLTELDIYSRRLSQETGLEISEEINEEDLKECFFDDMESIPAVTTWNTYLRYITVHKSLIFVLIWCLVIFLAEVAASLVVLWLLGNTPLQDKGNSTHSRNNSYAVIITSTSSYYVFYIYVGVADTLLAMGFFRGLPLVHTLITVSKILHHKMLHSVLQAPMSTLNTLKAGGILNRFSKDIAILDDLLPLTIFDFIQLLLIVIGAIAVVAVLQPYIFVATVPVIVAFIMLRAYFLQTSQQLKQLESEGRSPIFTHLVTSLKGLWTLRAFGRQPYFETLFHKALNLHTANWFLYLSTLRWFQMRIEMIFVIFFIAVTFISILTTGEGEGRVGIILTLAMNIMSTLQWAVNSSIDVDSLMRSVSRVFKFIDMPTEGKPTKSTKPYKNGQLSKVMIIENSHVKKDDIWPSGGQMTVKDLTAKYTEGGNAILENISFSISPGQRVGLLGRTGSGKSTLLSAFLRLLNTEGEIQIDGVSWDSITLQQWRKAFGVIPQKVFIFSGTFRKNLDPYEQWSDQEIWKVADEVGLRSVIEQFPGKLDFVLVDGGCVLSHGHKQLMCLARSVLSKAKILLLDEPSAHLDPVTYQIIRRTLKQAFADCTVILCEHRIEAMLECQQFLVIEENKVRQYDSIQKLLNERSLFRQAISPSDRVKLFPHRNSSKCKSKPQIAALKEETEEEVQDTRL

`Cc1cccc(C)c1-c1cc2nc(n1)NS(=N)(=O)c1cccc(c1)C(=O)N1CCN(C(=O)OC(C)(C)C)CC(C1)O2` (centres unmarked) gave a ring closure, isolated yield ([1]; from Cc1cccc(C)c1-c1cc(Cl)nc(NS(=N)(=O)c2cccc(C(=O)N3CCN(C(=O)OC(C)(C)C)CC(O)C3)c2)n1, snar bond, NaH, DMF, 15.3 mM, 1.5 h) of 23%.

Compound `Cc1cccc(C)c1-c1cc2nc(n1)NS(=O)(=O)c1cccc(c1)C(=O)N1C(c3ncc(OC(C)C)cn3)CCCC(O2)[C@H]1CC(C)C` (some centres unmarked) has a ring closure, isolated yield ([1]; from Cc1cccc(C)c1-c1cc(OC2CCCC(c3ncc(OC(C)C)cn3)N[C@@H]2CC(C)C)nc(NS(=O)(=O)c2cccc(C(=O)O)c2)n1, amide bond, CDMT/NMM, DMF, 7.3 mM, 60.0 h) of 14%.

Compound `Cc1cccc(C)c1-c1cc2nc(n1)NS(=O)(=O)c1cccc(c1)C(=O)N1CC(C)(C)CC(O2)C1CC(C)C` (centres unmarked) has a ring closure, isolated yield ([1]; from Cc1cccc(C)c1-c1cc(Cl)nc(NS(=O)(=O)c2cccc(C(=O)N3CC(C)(C)CC(O)C3CC(C)C)c2)n1, snar bond, NaH, DMF, 16.4 mM, 25.0 °C, 16.0 h) of 23% and a ring closure, isolated yield ([1]; from Cc1cccc(C)c1-c1cc(Cl)nc(NS(=O)(=O)c2cccc(C(=O)N3CC(C)(C)CC(O)C3CC(C)C)c2)n1, snar bond, NaH, DMF, 17.8 mM, 25.0 °C, 8.0 h) of 72%.

For `Cc1cccc(C)c1-c1cc2nc(n1)NS(=O)(=O)c1cccc(c1)C(=O)N1CCN(C(=O)OC(C)(C)C)C[C@H](C1)O2`, the ring closure, isolated yield ([1]; from Cc1cccc(C)c1-c1cc(Cl)nc(NS(=O)(=O)c2cccc(C(=O)N3CCN(C(=O)OC(C)(C)C)C[C@@H](O)C3)c2)n1, snar bond, NaH, DMF, 33.1 mM, 0.0 °C, 3.5 h) was 64%.

Work on `Cc1cccc(C)c1-c1cc2nc(n1)NS(=O)(=O)c1cccc(c1)C(=O)N1CCN(C(=O)OC(C)(C)C)C[C@H]1CO2` yielded a ring closure, isolated yield ([1]; from Cc1cccc(C)c1-c1cc(Cl)nc(NS(=O)(=O)c2cccc(C(=O)N3CCN(C(=O)OC(C)(C)C)C[C@H]3CO)c2)n1, snar bond, NaH, NMP, 4.4 mM, 70.0 °C, 2.0 h, 2 steps) of 19%.

In the case of `Cc1cccc(C)c1-c1cc2nc(n1)NS(=O)(=O)c1cccc(c1)C(=O)N1CCN(C(=O)OCc3ccccc3)C[C@H](C1)O2`, the ring closure, isolated yield ([1]; from Cc1cccc(C)c1-c1cc(Cl)nc(NS(=O)(=O)c2cccc(C(=O)N3CCN(C(=O)OCc4ccccc4)C[C@@H](O)C3)c2)n1, snar bond, NaH, DMF, 30.4 mM, 5.0 °C, 2.0 h) is reported as 44%.

Work on `Cc1cccc(C)c1-c1cc2nc(n1)NS(=O)(=O)c1cccc(c1)C(=O)N1Cc3cc(C(C)(C)C)ccc3C(C1)O2` (centres unmarked) yielded a ring closure, isolated yield ([1]; from Cc1cccc(C)c1-c1cc(OC2CNCc3cc(C(C)(C)C)ccc32)nc(NS(=O)(=O)c2cccc(C(=O)O)c2)n1, amide bond, HATU/NaOtBu, THF/DMF, 25.0 °C, 0.25 h, 3 steps) of 14%.

In the case of `Cc1cccc(C)c1-c1cc2nc(n1)NS(=O)(=O)c1cccc(c1)C(=O)N1CCc3cc(C(C)(C)C)ccc3C(O2)[C@H]1CC(C)C` (single isomer, unassigned) [Compound 237], the EC50 [2] is reported as < 1000 nM and the ring closure, yield after HPLC (from Cc1cccc(C)c1-c1cc(OC2c3ccc(C(C)(C)C)cc3CCN[C@@H]2CC(C)C)nc(NS(=O)(=O)c2cccc(C(=O)O)c2)n1, amide bond, 13-membered ring, NaOtBu, HATU, THF/DMF, 19.2 mM, 0.0 °C, 0.08 h, 2 steps) is reported as 18%.

In the case of `Cc1cccc(C)c1-c1cc2nc(n1)NS(=O)(=O)c1cccc(c1)C(=O)N1C[C@@H](CCCC1CC(C)C)O2` (stereo partly drawn) [Compound 181, (16R)-12-(2,6-Dimethylphenyl)-20-(2-methylpropyl)-15-oxa-8λ^6-thia-1,9,11,22-tetraazatetracyclo[14.4.1.13,7.110,14]tricosa-3(23),4,6,10(22),11,13-hexaene-2,8,8-trione], the “Ent. B Max Activity (%)” value [2] is reported as “++ (++ is 30-60%)”, the EC50 [2] is reported as < 1000 nM and the ring closure, yield after HPLC (from Cc1cccc(C)c1-c1cc(Cl)nc(NS(=O)(=O)c2cccc(C(=O)N3C[C@H](O)CCCC3CC(C)C)c2)n1, snar bond, 13-membered ring, NaOtBu, THF, 17.5 mM, 25.0 °C, 24.0 h) is reported as 4%.

In the case of `Cc1ccccc1-c1cc2nc(n1)NS(=O)(=O)c1cccc(c1)C(=O)N1Cc3ccccc3[C@@H](O2)[C@H]1CC(C)C` [Compound 192, (16R,24R)-12-(2-Methylphenyl)-24-(2-methylpropyl)-15-oxa-8λ^6-thia-1,9,11,25-tetraazapentacyclo[14.7.1.13,7.110,14.017,22]hexacosa-3(26),4,6,10,12,14(25),17,19,21-nonaene-2,8,8-trione], the ring closure, yield after HPLC (from Cc1ccccc1-c1cc(O[C@@H]2c3ccccc3CN[C@@H]2CC(C)C)nc(NS(=O)(=O)c2cccc(C(=O)O)c2)n1, amide bond, 13-membered ring, HATU/DIEA, DMF, 424.0 mM, 0.5 h, 3 steps) is reported as 9% and the EC50 ([3]; Enteroid Assay A) is reported as < 1000 nM.

With `Cc1cccc(C)c1-c1cc2nc(n1)NS(=O)(=O)c1cccc(c1)C(=O)N1Cc3cnccc3C(C1)O2` (centres unmarked) [Compound 194, 12-(2,6-Dimethylphenyl)-15-oxa-8λ^6-thia-1,9,11,20,25-pentaazapentacyclo[14.7.1.13,7.110,14.017,22]hexacosa-3(26),4,6,10,12,14(25),17,19,21-nonaene-2,8,8-trione] the ring closure, yield after HPLC (from Cc1cccc(C)c1-c1cc(OC2CNCc3cnccc32)nc(NS(=O)(=O)c2cccc(C(=O)O)c2)n1, amide bond, 13-membered ring, HATU/DIEA, DMF, 19.0 mM, 0.5 h, 3 steps) was 1%, the EC50 [3, 4] was 3000 to 30000 nM and the “Ent. A Max Activity (%)” value [3, 5] was “++ (++ is 30-60%)”.

For `Cc1cccc(C)c1-c1cc2nc(n1)NS(=O)(=O)c1cccc(c1)C(=O)N1Cc3ncccc3C(C1)O2` (centres unmarked) [Compound 198, 12-(2,6-Dimethylphenyl)-15-oxa-8λ^6-thia-1,9,11,21,25-pentaazapentacyclo[14.7.1.13,7.110,14.017,22]hexacosa-3,5,7(26),10(25),11,13,17,19,21-nonaene-2,8,8-trione], the ring closure, yield after HPLC (from Cc1cccc(C)c1-c1cc(OC2CNCc3ncccc32)nc(NS(=O)(=O)c2cccc(C(=O)O)c2)n1, amide bond, 13-membered ring, HATU/DIEA, NMP, 132.0 mM, 25.0 °C, 1.0 h) was 44%, the EC50 [3, 4] was 1000 to 3000 nM and the “Ent. A Max Activity (%)” value [3, 5] was “++ (++ is 30-60%)”.

For `Cc1cccc(C)c1-c1cc2nc(n1)NS(=O)(=O)c1cccc(c1)C(=O)N1CC[C@@H](C1)O2` [Compound 213, (3S)-17-(2,6-Dimethylphenyl)-2-oxa-13λ^6-thia-6,14,16,19-tetraazatetracyclo[13.3.1.13,6.18,12]henicosa-1(19),8(20),9,11,15,17-hexaene-7,13,13-trione], the ring closure, yield after HPLC (from Cc1cccc(C)c1-c1cc(O[C@H]2CCNC2)nc(NS(=O)(=O)c2cccc(C(=O)O)c2)n1, amide bond, 13-membered ring, HATU/TEA, DMF, 53.7 mM, 25.0 °C, 1.0 h) was 20%, the EC50 [3, 4] was 3000 to 30000 nM and the “Ent. A Max Activity (%)” value [3, 5] was “+++ (+++ is >60%)”.

For `Cc1cccc(C)c1-c1cc2nc(n1)NS(=O)(=O)c1cccc(c1)C(=O)N1CCC(O2)c2ccccc2C1` (centres unmarked) [Compound 227, 12-(2,6-dimethylphenyl)-15-oxa-8λ^6-thia-1,9,11,26-tetraazapentacyclo[14.7.2.13,7.110,14.017,22]heptacosa-3(27),4,6,10(26),11,13,17,19,21-nonaene-2,8,8-trione], the ring closure, yield after HPLC (from Cc1cccc(C)c1-c1cc(OC2CCNCc3ccccc32)nc(NS(=O)(=O)c2cccc(C(=O)O)c2)n1, amide bond, 14-membered ring, HATU/DIEA, DMF, 13.1 mM, 25.0 °C, 0.083 h, 3 steps) was 12%, the EC50 [3, 4] was < 1000 nM and the “Ent. A Max Activity (%)” value [3, 5] was “++ (++ is 30-60%)”.

For `Cc1cccc(C)c1-c1cc2nc(n1)NS(=O)(=O)c1cccc(c1)C(=O)N1CC(CCc3ccccc31)O2` (centres unmarked) [Compound 228, 5-(2,6-Dimethylphenyl)-2-oxa-9λ^6-thia-6,8,16,27-tetraazapentacyclo[14.8.1.13,7.110,14.017,22]heptacosa-3(27),4,6,10,12,14(26),17(22),18,20-nonaene-9,9,15-trione], the ring closure, yield after HPLC (from Cc1cccc(C)c1-c1cc(Cl)nc(NS(=O)(=O)c2cccc(C(=O)N3CC(O)CCc4ccccc43)c2)n1, snar bond, 13-membered ring, NaH, DMF, 21.9 mM, 25.0 °C, 48.0 h) was 15%, the “Ent. A Max Activity (%)” value ([3]; Enteroid Assay A) was “++ (++ is 30-60%)” and the EC50 ([3]; Enteroid Assay A) was 1000 to 3000 nM.

For `Cc1cccc(C)c1-c1cc2nc(n1)NS(=O)(=O)c1cccc(c1)C(=O)N1Cc3ccccc3C(CO2)C1` (centres unmarked) [Compound 238, 12-(2,6-Dimethylphenyl)-15-oxa-8λ^6-thia-1,9,11,26-tetraazapentacyclo[15.7.1.13,7.110,14.018,23]heptacosa-3,5,7(27),10(26),11,13,18,20,22-nonaene-2,8,8-trione], the EC50 [2] was < 1000 nM and the ring closure, yield after HPLC (from Cc1cccc(C)c1-c1cc(OCC2CNCc3ccccc32)nc(NS(=O)(=O)c2cccc(C(=O)O)c2)n1, amide bond, 14-membered ring, HATU/DIEA, DMF/THF, 136.0 mM, 16.0 h, 2 steps) was 5%.

Source: US20240018161A1, “MODULATORS OF CYSTIC FIBROSIS TRANSMEMBRANE CONDUCTANCE REGULATOR” (VERTEX PHARMACEUTICALS INCORPORATED, priority 2020, published 2024)
